These results are taken from the OPERA property sets (Mansouri et al. 2018).

Molecules are shown by their SMILES. In brackets after ≈: the same amount, converted by molar mass.

By logP is commonly meant the decadic logarithm of the partition coefficient of the neutral form, usually between octanol and water. A low value points to lower lipophilicity. For `CC(C)C(C#N)c1ccc(Cl)cc1` (stereo not given), the logP stood at 3.41.
The same measure, in the same setting: next, `CC(C)c1ccc(Br)c(C(C)C)c1NC(=O)CN(CC(=O)O)CC(=O)O`: 0.2; `CC(C)(O)C(=O)Nc1ccc(Cl)cc1`: 2; `CC(C(=O)Nc1ccc([N+](=O)[O-])c(C(F)(F)F)c1)C(F)(F)F` (stereo not given): 3.71.
The compound `Nc1ncnc2c1ncn2Cc1ccccc1` returned a logP of 1.7.
As to `COc1cc(Cl)c(Cl)c(Cl)c1Cl`, the logP was found to be 4.51.
The compound `Cc1cc(C)c(N)cc1C` came in with a logP of 2.27.
Still for that read-out and setting: the value for `CC(CC(=O)c1ccccc1)C(=O)O` (stereo not given) was 1.62; that for `ClCc1ccc(Cl)cc1` was 3.18.
`CN(CCN)S(=O)(=O)c1ccc(C(C)(C)[N+](=O)[O-])c([N+](=O)[O-])c1` had a logP of 0.65.
On the same count and under the same terms, the value for `CCc1c(O)c(=O)ccn1C` was -0.2; that for `CN1CC=C(c2cccc(N)c2)CC1` was 1.47.
The compound `OC(CNC1CCCCC1Br)Cn1ccnc1` (stereo not given) came in with a logP of 1.21.
In turn, `ON=C1CCCCC1` registered a logP of 0.84.
`O=C(O)c1cc(Oc2ccc(C(F)(F)F)cc2Cl)ccc1[N+](=O)[O-]`: the logP turned out to be 3.7.
Take `O=c1cc(CO)occ1O`: the lipophilicity (logP) was -0.64.
In the case of `CC(CCl)OC(C)CCl` (stereo not given), the logP was 2.48.
For orientation: solubility means the dissolved amount per volume that the medium holds. As for `CCOP(=O)(OCC)SCc1ccccc1`, the lipophilicity (logP) was 3.21 and the solubility worked out at 3840 µM (≈ 1000 µg/mL).
With `ClC=C1C2CC(C(Cl)C2(Cl)Cl)C1(CCl)CCl` (stereo not given), the logP was determined as 5.2.
In the case of `CN(C)CCCN1c2ccccc2S(=O)c2ccc(Cl)cc21` (stereo not given), the logP was 2.32.
On to `CC1=NS(=O)(=O)c2ncccc2N1`, for which the logP was -0.91.
`NCCCN1c2ccccc2Sc2ccc(Cl)cc21` returned a logP of 4.47.
For `CC(=O)OCCOCn1cnc2cnc(N)nc21`, the logP is -0.61.
Still for that read-out and setting: next, `CC(=O)Nc1nc2c(ncn2COCCO)c(=O)[nH]1`: -1.3; `CCNC(=S)NCC`: 0.57; `CC1CCC(=O)N1` (stereo not given): -0.1.
In turn, `Oc1c(Cl)ccc(Cl)c1Cl` came in with a solubility of 2280 µM (≈ 450 µg/mL).
On to `O=c1nc[nH]c2c1ncn2[C@@H]1O[C@H](CO)C[C@@H]1F`, for which the logP was -1.21.
In the case of `COc1ncnc2c1ncn2C1OC(COC(=O)c2ccccc2)C(O)C1OC(=O)c1ccccc1` (stereo not given), the log partition coefficient (logP) turned out to be 3.39.
Compound `O=C1c2cc([N+](=O)[O-])ccc2-c2ccc([N+](=O)[O-])cc21` had a logP of 2.84.
Compound `CCCCOc1ccc([N+](=O)[O-])cc1NC(C)=O` gave a logP of 2.26.
With `Cc1cc(OCCN(C)C)c(C(C)C)cc1OC1CCCCC1=O` (stereo not given), the logP amounted to 3.63.
Consider `CCCCN=C=S`, for which the logP came to 2.92.
Take `CN1CC=C(c2ccc(Cl)cc2)CC1`: the logP amounted to 3.32.
`O=C1CC[C@@]2(O)[C@H]3Cc4ccc(O)c5c4[C@@]2(CCN3CC2CC2)[C@H]1O5` gave a logP of 1.92.
In the case of `[O-][n+]1ccc(Cl)c2ccc(Cl)cc21`, the logP came out at 1.85.
In the case of `CN1CC(C(=O)O)CC1=O` (stereo not given), the logP was -1.5.
Take `CCn1c2ccccc2c2ccccc21`: the logP was found to be 4.49.
Consider `O=C(O)C(=O)Nc1nc(-c2ccc3c(c2)OCCO3)cs1`, for which the logP came to 1.8.
The compound `Cc1c(Cl)ccc(Cc2c(Cl)cccc2Cl)c1Cl` showed a lipophilicity (logP) of 7.2.
Turning to `Cc1cc(Cl)c(C(C)C)cc1Cl`, the logP amounted to 5.6.
In turn, `Oc1c(O)c(Cl)c(Cl)c(Cl)c1Cl` showed a solubility of 10.9 µM (≈ 2.7 µg/mL).
Compound `CCC1CCCCC1` gave a logP of 4.56.
With `COc1ccccc1OCC(O)CO` (stereo not given), the logP came to 1.39.
Consider `Nc1c(Cl)c(Cl)c(N)c2c1C(=O)c1ccccc1C2=O`, for which the log partition coefficient (logP) came to 4.56.
In the case of `Clc1ccc(Nc2cc3nc4ccccc4n(-c4ccc(Cl)cc4)c-3cc2=NCCCN2CCCC2)cc1`, the logP is 7.17.
`CCCCCCCCCCCCN1CCCC1=O`: the log partition coefficient (logP) amounted to 4.2.
With `CC(C)(C)[C@@H](O)[C@H](Cc1ccc(Cl)cc1Cl)n1cncn1`, the lipophilicity (logP) stood at 3.8.
With `CCCCCCCc1ccccc1`, the logP was determined as 5.37.
Regarding `O=C(O)CNCP(=O)(O)O`, the logP is -3.4.
Compound `COC1=C(OC)C(=O)C(C)=CC1=O` showed a logP of 0.8.
For the compound `CCCCc1ccc(Cn2cncn2)cc1`, the log partition coefficient (logP) is 2.81.
Compound `Oc1cccc(N=C=S)c1` registered a lipophilicity (logP) of 3.23.
`Cc1cccc(C(C)C)c1` registered a solubility of 317 µM (≈ 42.5 µg/mL).
In the case of `COc1ccc(C(C)NCCC(c2ccccc2)c2ccccc2)cc1OC` (stereo not given), the lipophilicity (logP) is 5.8.
Take `CC(O)CNc1ncc(-c2ccncc2)cc1C#N` (stereo not given): the logP is 0.79.
The compound `CCNC(=O)Nc1ncc([N+](=O)[O-])s1` returned a solubility of 1390 µM (≈ 300 µg/mL).
Take `ClC1=C(Cl)C2(Cl)C3C(Cl)C=CC3C1(Cl)C2(Cl)Cl` (stereo not given): the logP is 6.1.
Take `C[Si]1(C)O[Si](C)(C)O[Si](C)(C)O[Si](C)(C)O1`: the lipophilicity (logP) worked out at 6.74.
The compound `Brc1ccc(O[Si]23OCCN(CCO2)CCO3)cc1` displayed a logP of 0.58.
In the case of `O=[N+]([O-])c1ccc(Oc2c(Cl)cc(Cl)cc2Cl)cc1`, the logP is 4.97.
In turn, `CCCCOCCOCCOCCCC` gave a logP of 1.92.
Same read-out and setting: the value for `COC(=O)C1=C(C)NC(C)=C(C(=O)OCCN2CCN(C(c3ccccc3)c3ccccc3)CC2)C1c1cccc([N+](=O)[O-])c1` (stereo not given) was 5.2; that for `Clc1ccc2c(Cl)ccnc2c1` was 3.57.
